In ChEMBL document CHEMBL1132834, “Phenylpropenamide derivatives as inhibitors of hepatitis B virus replication” (Bioorg Med Chem Lett, 2000) one finds EC50, CC50 and EC90 data, which are given here for 19 compounds.

For one data set, the system named is Newcastle disease virus. Kind of data set: Inhibition of Newcastles disease virus replication by 50% (no effect at this concentration). The format is functional, organism-based. Conditions: avian paramyxovirus 1.
Data set [1] can be described thus: Inhibition of Woodchuck HBV replication by 50% (no effect at this concentration). Type of data set: functional, organism-based. The following applies: Marmota monax.
Data set [2] can be described thus: Inhibition of hepatitis B virus replication in the HepAD38 cell line. The format is functional, cell-based. Conditions: Homo sapiens.
For a further data set, the system named is Human alphaherpesvirus 1. The experiment in a line: Inhibition of HSV-1 replication by 50% (no effect at this concentration). Type of data set: functional, organism-based.
A short description of data set [3]: Reduction of viable cell numbers by 50% was evaluated by HepAD38 cellular assay. The format is ADME, cell-based. The following applies: human, HepAD38 cells; read-out: TC50 (the source's name).
The nature of data set [4]: Concentration which inhibits hepatitis B virus replication in the HepAD38 cell line. Type of data set: functional. Conditions: Homo sapiens.
The test system of data set [5] is Vesicular stomatitis virus. Kind of data set: Inhibition of Vesicular stomatis virus replication by 50% (no effect at this concentration). Type of data set: functional, organism-based.
The test system of data set [6] is Human immunodeficiency virus 1. Kind of data set: Inhibition of HIV-1 replication by 50% (no effect at this concentration). Type of data set: functional, organism-based.
Data set [7] can be described thus: Inhibition of Duck HBV replication by 50% (no effect at this concentration). The format is functional, organism-based. The following applies: Anas sp.

Consider `O=C(N/C(C(=O)N1CCCCC1)=C(/Br)c1ccccc1)c1ccc(Br)cc1`, for which the EC50 is above 81 µM in the data set with Newcastle disease virus; above 81 µM in data set [1]; 0.53 µM in data set [2]; above 81 µM in the data set with Human alphaherpesvirus 1; above 81 µM in [5]; above 81 µM in data set [6]. In [7], this compound had an EC50 above 81 µM. Also, the CC50 in [3] is above 61 µM. Also, in [4], the concentration for an effect of 90% (EC90) is 3.7 µM.
On to `Cc1ccc(/C(Br)=C(\NC(=O)c2ccccc2)C(=O)N2CCCCC2)cc1`, for which the EC50 is above 81 µM in the data set on Newcastle disease virus; above 81 µM in data set [1]; 2.8 µM in data set [2]; above 81 µM in the data set with Human alphaherpesvirus 1; above 81 µM in data set [5]; above 81 µM in data set [6]. The compound further gave an EC50 in data set [7] above 81 µM. Moreover, the CC50 in [3] is above 70 µM.
In the case of `O=C(N/C(C(=O)N1CCCCC1)=C(/Br)c1ccccc1F)c1ccc([N+](=O)[O-])cc1`, the EC50 with Newcastle disease virus was above 81 µM; in data set [1], above 81 µM; in data set [2], 0.31 µM; in the data set on Human alphaherpesvirus 1, above 81 µM; in data set [5] it was above 81 µM; in data set [6], above 81 µM. Moreover, the EC50 in data set [7] was above 81 µM. Also, in data set [3], the CC50 turned out to be 42 µM. Besides, the 90% effect level in [4] (EC90) was put at 1.8 µM.
In the case of `O=C(N/C(C(=O)N1CCCCC1)=C(/Cl)c1ccccc1)c1ccc(F)cc1`, the EC50 in the data set with Newcastle disease virus is above 81 µM; in data set [1], above 81 µM; in [2], 1.3 µM; with Human alphaherpesvirus 1 it was above 81 µM; in [5], above 81 µM; in data set [6], above 81 µM. The compound also yielded an EC50 in data set [7] above 81 µM. In addition, the CC50 in data set [3] was above 67 µM. In data set [4], this compound showed an EC90 of 5.5 µM.
On to `O=C(N/C(C(=O)N1CCCCC1)=C(/Br)c1ccccc1)c1ccc(Cl)cc1`, for which the 50% effective concentration (EC50) in the data set with Newcastle disease virus was above 81 µM; in data set [1], above 81 µM; in [2], 0.54 µM; in the data set on Human alphaherpesvirus 1 it was above 81 µM; in [5], above 81 µM; in data set [6], above 81 µM. In [7], the EC50 is above 81 µM. Further, the CC50 in [3] is above 67 µM. The EC90 in data set [4] is 3.1 µM.
Take `COc1ccc(C(=O)N/C(C(=O)N2CCCCC2)=C(/Cl)c2ccccc2)cc1`: the EC50 in the data set on Newcastle disease virus is above 81 µM; in data set [1], above 81 µM; in data set [2] it was 5.2 µM; with Human alphaherpesvirus 1 it was above 81 µM; in [5], above 81 µM; in [6], above 81 µM. In addition, the 50% effective concentration (EC50) in data set [7] is above 81 µM. Moreover, the CC50 in data set [3] is above 75 µM.
`O=C(N/C(C(=O)N1CCCCC1)=C(/Br)c1ccccc1)c1ccc([N+](=O)[O-])cc1`: the EC50 with Newcastle disease virus was above 81 µM; in data set [1], above 81 µM; in data set [2] it was 0.35 µM; in the data set on Human alphaherpesvirus 1, above 81 µM; in [5], above 81 µM; in data set [6], above 81 µM. In addition, the half-maximal effective concentration (EC50) in [7] is above 81 µM. Besides, in data set [3], the CC50 is above 65 µM. In data set [4], the EC90 amounted to 3 µM.
Consider `O=C(N/C(C(=O)N1CCCCC1)=C(/Br)c1ccccc1)c1ccccc1`, for which the EC50 with Newcastle disease virus was above 81 µM; in data set [1] it was above 81 µM; in [2], 1.3 µM; in the data set with Human alphaherpesvirus 1, above 81 µM; in [5], above 81 µM; in [6], above 81 µM. The same compound had an EC50 in data set [7] above 81 µM. For the same compound, the CC50 in data set [3] was above 72 µM. The same compound displayed a 90% effect concentration (EC90) in data set [4] of 21 µM.
Turning to `COc1ccccc1/C(Br)=C(\NC(=O)c1ccccc1)C(=O)N1CCCCC1`, the EC50 in the data set on Newcastle disease virus is above 81 µM; in [1], above 81 µM; in data set [2], 2.1 µM; with Human alphaherpesvirus 1 it was above 81 µM; in [5], above 81 µM; in data set [6], above 81 µM. This compound gave an EC50 in [7] above 81 µM. Further, in data set [3], the CC50 is above 70 µM.
`O=C(N/C(C(=O)N1CCCCC1)=C(/Cl)c1ccccc1)c1ccc(C(F)(F)F)cc1`: the EC50 in the data set on Newcastle disease virus is above 81 µM; in data set [1], above 81 µM; in data set [2] it was above 69 µM; in the data set on Human alphaherpesvirus 1 it was above 81 µM; in data set [5] it was above 81 µM; in [6] it was above 81 µM. This compound also came in with an EC50 in data set [7] above 81 µM. In addition, the CC50 in data set [3] was above 69 µM.
In the case of `O=C(N/C(C(=O)N1CCCCC1)=C(/Br)c1ccc(Cl)cc1)c1ccccc1`, the EC50 with Newcastle disease virus was above 81 µM; in data set [1], above 81 µM; in [2] it was 11 µM; with Human alphaherpesvirus 1, above 81 µM; in data set [5], above 81 µM; in [6], above 81 µM. This compound also yielded an EC50 in [7] above 81 µM. In [3], the CC50 is 55 µM.
Regarding `O=C(N/C(C(=O)N1CCCCC1)=C(/Br)c1ccc(Cl)cc1)c1ccc([N+](=O)[O-])cc1`, the concentration giving a half-maximal response (EC50) in the data set on Newcastle disease virus is above 81 µM; in data set [1], above 81 µM; in [2], 1.6 µM; with Human alphaherpesvirus 1, above 81 µM; in [5], above 81 µM; in data set [6] it was above 81 µM. For the same compound, the EC50 in [7] is above 81 µM. Also, the CC50 in data set [3] was above 60 µM.
In the case of `O=C(N/C(C(=O)N1CCCCC1)=C(/Br)c1ccccc1F)c1ccccc1`, the EC50 in the data set on Newcastle disease virus was above 81 µM; in data set [1], above 81 µM; in data set [2], 1.5 µM; in the data set on Human alphaherpesvirus 1, above 81 µM; in data set [5] it was above 81 µM; in data set [6], above 81 µM. In addition, the EC50 in data set [7] was above 81 µM. The CC50 in data set [3] was determined as 70 µM.
For the compound `COc1ccc(/C(Br)=C(\NC(=O)c2ccccc2)C(=O)N2CCCCC2)cc1`, the EC50 in the data set on Newcastle disease virus was above 81 µM; in [1], above 81 µM; in [2], 13 µM; in the data set with Human alphaherpesvirus 1 it was above 81 µM; in [5], above 81 µM; in [6], above 81 µM. The half-maximal effective concentration (EC50) in data set [7] is above 81 µM. In addition, in [3], the CC50 was above 67 µM.
In the case of `O=C(N/C(C(=O)N1CCCCC1)=C(/Cl)c1ccc(Cl)cc1)c1ccccc1`, the EC50 (in the data set with Newcastle disease virus; in data set [1]; with Human alphaherpesvirus 1; in data set [5]; in data set [6]; in data set [7]) was above 81 µM each time. Further, the CC50 in [3] is 45 µM.
Consider `Cc1ccccc1/C(Br)=C(\NC(=O)c1ccccc1)C(=O)N1CCCCC1`, for which the EC50 with Newcastle disease virus was above 81 µM; in data set [1] it was above 81 µM; in data set [2], 0.89 µM; in the data set with Human alphaherpesvirus 1, above 81 µM; in [5], above 81 µM; in data set [6], above 81 µM. In addition, the EC50 in data set [7] was above 81 µM. The CC50 in [3] was above 70 µM.
Consider `O=C(N/C(C(=O)N1CCCCC1)=C(/Cl)c1ccccc1F)c1ccccc1`, for which the EC50 (in the data set on Newcastle disease virus; in data set [1]; in the data set on Human alphaherpesvirus 1; in [5]; in data set [6]; in [7]) was above 81 µM each time. In addition, the CC50 in data set [3] is 31 µM.
Consider `COc1ccc(/C(Cl)=C(\NC(=O)c2ccccc2)C(=O)N2CCCCC2)cc1`, for which the EC50 with Newcastle disease virus is above 81 µM; in data set [1] it was above 81 µM; in data set [2], above 75 µM; in the data set on Human alphaherpesvirus 1 it was above 81 µM; in data set [5], above 81 µM; in [6], above 81 µM. This compound returned an EC50 in [7] above 81 µM. Moreover, the CC50 in [3] was above 75 µM.
On to `O=C(N/C(C(=O)N1CCCCC1)=C(/Br)c1ccc(F)cc1)c1ccccc1`, for which the EC50 in the data set with Newcastle disease virus is above 81 µM; in [1] it was above 81 µM; in data set [2] it was 3.9 µM; in the data set with Human alphaherpesvirus 1 it was above 81 µM; in data set [5], above 81 µM; in [6], above 81 µM. The same compound returned an EC50 in data set [7] above 81 µM. The CC50 in data set [3] is above 70 µM.
